Data on one compound can be found in PubChem BioAssay AID504754 (National Center for Advancing Translational Sciences (NCATS), 2011).

The half-life is the time needed for the level to fall by half in the phase considered.

This data set relates to mouse liver microsomes, LC-MS/MS half-life. Nature of the data set: Inhibitors of Cruzain: Metabolic Stability Theory. The conditions noted are these: at 1 µM; active compounds read high. An excerpt: Chagas Disease is a neglected tropical disease that affects over 16 million people in Latin America. The cysteine protease cruzain is essential for the survival Trypanosoma cruzi, the parasitic agent responsible for Chagas disease. Potential intervention for T. cruzi includes the inhibition of cruzain. This bioassay will summarize the ongoing development of small molecule cruzain inhbitiors. Currently, a screen of ~200k compounds and through extensive follow-up work a probe was identified. To further characterize the probe, it was tested in in vitro ADME assays. Mouse liver microsomes are created through broken up endoplasmic reticulum from mouse liver. These liver microsomes contain many drug metabolizing enzymes, such as Cytochome P-450s and flavin-containing monooxygenases. Because metabolism is major way of drug clearance, this is an important result. NIH Chemical Genomics Center [NCGC] NIH Molecular Libraries Probe Production Centers Network [MLPCN] MLSCN Grant: DA024891-01 PI Name: Dr. Brian Shoichet; University of California, San Francisco
1uM of compound in incubated in mouse liver microsome; the reference compound is ketanserin. Compounds are incubated at 37 degrees C for different time periods: 0, 5, 15, 30, 45, and 60 minutes. Samples are analyzed with LC-MS/MS.

`Cc1ccc(OCCn2c(CCNC(=O)C3CCCCC3)nc3ccccc32)cc1`: the half-life was 8 min.
